Data as given in patent US5637619A, “Antitumor 2-aminocarbonyl-1, 2-bis(methylsulfonyl)-1-(substituted)hydrazines” (Yale University, priority 1995, dated 1997).
Like-named read-outs stand apart in the source and are kept apart here.

Experiments:
ribonucleotide reductase = conditions: cited from earlier work
glutathione reductase = conditions: cited from earlier work
thioredoxin reductase = conditions: cited from earlier work
[1] = tested on: LX-1 human lung carcinoma; assay: LX-1 human lung carcinoma xenograft, sc in athymic mice; format: in vivo, human tumor in athymic (nu/nu) mice; conditions: 20 mg/kg per injection (optimum), iv every fourth day × 3
Procedure: (§1) The M5076 reticulum cell sarcoma was passaged biweekly by sc transfer of tumor fragments into C57BL/6 mice, and the M109 lung carcinoma was similarly passaged in BALB/c mice. The LX-1 human lung carcinoma was passaged sc every two to three weeks in BALB/c-background athymic (nu/nu) mice. For use in these systems, compound III was dissolved in: (a) 100% DMSO and administered by iv injection in a fixed volume of 10 microliters; or (b) DMSO diluted with saline to a final concentration of 10% DMSO and administered iv in a volume of 0.01 milliliter/g of body weight. […] Mitomycin C and cyclophosphamide were dissolved and administered in saline. BCNU and MeCCNU were dissolved in ethanol and diluted 1:9 (v/v) with water prior to administration.
(§2) Five mice per group were employed in experiments with the B16F10 melanoma, and 8 mice per group with the M5076 sarcoma, the M109 carcinoma and the LX-1 carcinoma. A minimum of two dose levels per compound were included in each evaluation and drug therapy was initiated 24 h after tumor implantation for the M5076 sarcoma and M109 carcinoma. In the LX-1 experiment, tumor bearing mice were selected and sorted into treatment and control groups on day 6 post-tumor implant such that all tumor weights ranged from 50-100 mg and median tumor weights per group were reasonably similar. Therapeutic results are presented in terms of: (a) increases in lifespan reflected by the relative median survival time (MST) of treated versus control groups (i.e., %T/C values), and by long-term survivors, and (b) primary tumor growth inhibition (i.e., T-C values) determined by calculating the relative median times for treated (T) and control untreated (C) mice to grow tumors of a 0.5 g size for the LX-1 carcinoma or a 1 g size for the murine neoplasms. Tumor weights were interchangeable with tumor size on the basis of 1 mm^3 =1 mg. […] The activity criterion for tumor inhibition was a delay in tumor growth consistent with one log10 cell kill (LCK). The absolute T-C value needed to attain this level of efficacy varied from experiment to experiment and depended upon the tumor volume doubling time of the control mice in each study. Treated mice dying prior to day 10 in the ip M109 experiment, or dying before their tumors achieved 0.5 g for the LX-1 carcinoma or 1 g in size for all other sc tumor models, were considered to have died from drug toxicity. Groups of mice with more than one death due to drug toxicity were not used in the evaluation of antitumor efficacy. Statistical evaluations of data were performed using Gehan's generalized Wilcoxan test (Gehan, Biometrika, 1965, 52, 203-233).
The human lung tumor, LX-1, xenografted sc in athymic mice, was also used to examine the antineoplastic potential of compound III. […]

liver microsomal enzymes = conditions: NADPH-dependent; cited from earlier work
[2] = tested on: M5076 reticulum cell sarcoma; assay: M5076 reticulum cell sarcoma, sc implanted; format: in vivo, C57BL/6 mice
Procedure: as §1, §2
Compound III was also evaluated against the M5076 reticulum cell sarcoma implanted sc. When administered iv at a level of 48 mg/kg per injection in 100% DMSO every other day for five days, compound III cured 6 out of 8 mice and consequently, no median time (T-C value) to reach 1 gram size tumors was expressed for this group. Tumor growth in mice receiving only 100% DMSO was indistinguishable from that of untreated control animals. 1-(2-Chloroethyl)-3-(4-methylcyclohexyl)-1-nitrosourea (MeCCNU) and BCNU were included in this experiment for comparison. The former achieved a maximum %T/C of 128 and a delay in tumor growth of 33.5 days at 16 mg/kg per injection administered iv every fourth day for three total injections, while BCNU, administered iv on the same treatment schedule, produced a %T/C in excess of 157, with 2 out of 8 cures, and a T-C of >62 days (data not shown).

[3] = tested on: glutathione S-transferase mu isoenzymes; conditions: human isoenzymes; cited from earlier work
[4] = tested on: glutathione S-transferase mu isoenzymes; conditions: rat isoenzymes; cited from earlier work
[5] = tested on: NADPH:cytochrome P450 reductase; conditions: cited from earlier work
[6] = tested on: colon CX-1 human tumor xenografts; conditions: subrenal capsule, athymic mice; cited from earlier work
[7] = tested on: mammary MX-1 human tumor xenografts; conditions: subrenal capsule, athymic mice; cited from earlier work
[8] = Body weight change / toxicity in L1210-bearing mice; format: in vivo, mice (CD2F1); conditions: for Av. Wt. Change %: L1210-bearing mice
Procedure: (§3) Leukemia L1210 cells were obtained from the Frederick Cancer Research Facility, Division of Cancer Treatment Tumor Repository of the National Cancer Institute, and were maintained by serial passage in tissue culture. Every 8 weeks, tumor cells were injected intraperitoneally into five donor CD2 F1 mice 8- to 10- weeks of age and were allowed to grow for 7 days. The peritoneal fluid was withdrawn and the suspension was centrifuged for 5 min at 1600 g. The supernatant was decanted and 10^5 cells/mL were seeded into 10 mL of RPMI 1640 medium supplemented with 10% fetal bovine serum and 1% L-glutamine, and once again maintained in culture. To assay for antineoplastic activity, 0.1 mL of the cell suspension containing 10^5 L1210 leukemia cells was injected ip into each recipient mouse. Test compounds were administered over a wide range of dosage levels, beginning 24 h after tumor implantation, and continued once daily for 6 consecutive days. All drugs were administered ip as a solution in 100% dimethylsulfoxide (DMSO), in a volume not exceeding 0.025 mL. […] Mice were weighed during the course of the experiments, and the percentage change in body weight from onset to termination of therapy was used as an indication of drug toxicity. Determination of the sensitivity of neoplasms to these agents was based upon the prolongation of survival time afforded by the drug treatments.
(§4) ^a Administered ip once daily for six consecutive days, beginning 24 hours after tumor implantation, with 5-10 mice being used per group. ^b Average percent change in body weight from onset to termination of therapy. ^c % T/C=average survival time of treated/control mice×100; cures (>60-day survivors) are listed separately and are not included in this calculation.

B16F10 melanoma = assay: B16F10 melanoma, tumor growth delay in mice; format: in vivo, C57BL/6 mice; conditions: 100% DMSO
Procedure: B16F10 melanoma cells were grown in vitro as monolayers in minimum essential medium with Hank's salts supplemented with 10% fetal bovine serum and 1% 200 mM L-glutamine solution. Solid tumors were produced in C57BL/6 female mice 12- to 14-weeks of age by the intradermal injection in the right flank of each mouse of 0.1 mL of a cell suspension containing 10^6 B16F10 cells/mL from freshly trypsinized cultures. After 10-12 days, animals bearing approximately 100 mm^3 tumors were treated ip with compound III or IV dissolved in 100% DMSO for 6 consecutive days, and tumor volumes were measured on alternate days until reaching 1000 mm^3.
as §2
In addition, both compounds III and IV were evaluated in 100% DMSO against the B16F10 melanoma implanted intradermally (id) in mice (Table III). In an initial experiment, compound IV produced a T-C of 15.5 days at a daily dosage level of 20 mg/kg administered once daily for six consecutive days beginning on day 10 post-implant. In the same experiment, using the same treatment schedule, a growth delay of 11 days was obtained with compound III. […] Thus, the aminocarbonyl component in this class of agents influences the magnitude of the antitumor effects obtained against the B16F10 melanoma.

L1210 leukemia = L1210 leukemia survival time in mice (ip implanted); format: in vivo, mice (CD2F1)
Procedure: as §3, §4

[9] = tested on: M5076 reticulum cell sarcoma; conditions: compared with compound III or BCNU; cited from earlier work
M109 lung carcinoma [10] = conditions: as reported earlier (J. Med. Chem. 1993, 36, 3496); cited from earlier work
M109 lung carcinoma [11] = conditions: 60 mg/kg per injection, highest dosage level, ip q4d × 3; different experiment; cited from earlier work
[12] = chloroethylating agent with no carbamoylating activity; cited from earlier work
[13] = iv every fourth day × 3 (same treatment schedule as MeCCNU)
[14] = 16 mg/kg per injection, iv every fourth day × 3

O=NN(CCCl)C(=O)NCCCl [BCNU, 1,3-bis(2-chloroethyl)-1-nitrosourea]
inhibition of ribonucleotide reductase (in words) (ribonucleotide reductase): inhibit glutathione reductase, ribonucleotide reductase
inhibition of glutathione reductase (in words) (glutathione reductase): inhibit glutathione reductase
inhibition of thioredoxin reductase (in words) (thioredoxin reductase): inhibit glutathione reductase, ribonucleotide reductase and thioredoxin reductase
T-C [1]: 11.8 days
log10 cell kill (LCK) [1]: 1.3 LCK
inactivation by denitrosation (in words) (liver microsomal enzymes): inactivated by denitrosation by liver microsomal enzymes
%T/C [2, 13]: > 157%
T-C [2, 13]: > 62 days
cures [2, 13]: 2 out of 8
glutathione-dependent denitrosation (in words) [3]: undergo glutathione-dependent denitrosation
glutathione-dependent denitrosation (in words) [4]: undergo glutathione-dependent denitrosation

O=NN(CCCl)C(=O)NC1CCCCC1 [CCNU, 1-(2-chloroethyl)-3-cyclohexyl-1-nitrosourea]
denitrosation (in words) [5]: catalyzed by NADPH:cytochrome P450 reductase

CNC(=O)ON(C(C)=O)C(=O)NC [Caracemide]
antitumor activity (in words) [6]: active
antitumor activity (in words) [7]: active

CNC(=O)N(N(CCCl)S(C)(=O)=O)S(C)(=O)=O [Compound IV, 1,2-Bis(methylsulfonyl)-1-(2-chloroethyl)-2-methylaminocarbonylhydrazine]
Av. Wt. Change % ([8]; 5 mg/kg ip once daily × 6): +9.9%
body weight loss (in words) ([8]; 5 mg/kg × 6): no body weight loss
Av. Wt. Change % ([8]; 10 mg/kg ip once daily × 6): -5.6%
Av. Wt. Change % ([8]; 15 mg/kg ip once daily × 6): -2.1%
loss of body weight ([8]; 10 and 15 mg/kg × 6): < 6%
T-C (B16F10 melanoma; experiment a, 10 mg/kg/injection, qd × 6 from day 10, ip): 5.0 days
T-C, growth delay (B16F10 melanoma; experiment a, 20 mg/kg/injection, qd × 6 from day 10, ip): 15.5 days
T-C (B16F10 melanoma; experiment b, 20 mg/kg/injection, qd × 6 from day 12, ip): 10.0 days
T-C, growth delay (B16F10 melanoma; experiment b, 30 mg/kg/injection, qd × 6 from day 12, ip): 25.5 days
% 60 Day Survivors (cures) (L1210 leukemia; 5 mg/kg ip once daily × 6): 40%
%T/C (average survival time treated/control × 100) (L1210 leukemia; 5 mg/kg ip once daily × 6, cures not included): 234%
% 60 Day Survivors (cures) (L1210 leukemia; 10 mg/kg ip once daily × 6): 100%
% 60 Day Survivors (cures) (L1210 leukemia; 15 mg/kg ip once daily × 6): 100%
antileukemic activity / therapeutic potential (in words) (L1210 leukemia; qualitative, L1210 leukemia in mice): much better therapeutic potential than the amino acid ester derivatives

CC1CCC(NC(=O)N(CCCl)N=O)CC1 (centres unmarked) [MeCCNU, 1-(2-Chloroethyl)-3-(4-methylcyclohexyl)-1-nitrosourea]
delay in tumor growth (T-C) [2, 14]: 33.5 days
maximum %T/C [2, 14]: 128%

CC(=O)N(N(CCCl)S(C)(=O)=O)S(C)(=O)=O [X]
activity against M5076 (in words) [9]: much less active than compound III or BCNU
maximum %T/C (M109 lung carcinoma [10]): 136%
maximum T-C value (M109 lung carcinoma [10]): 14.5 days
%T/C (median survival time) (M109 lung carcinoma [11]): 231%

CS(=O)(=O)CS(=O)(=O)OCCCl [clomesone]
antineoplastic activity (in words) [12]: excellent antineoplastic activity
